In assay [1] the target is T1, PfHsp70-z (Plasmodium falciparum, UniProt Q8IC01). The experiment in a line: Suppression of heat-induced aggregation of MDH (chaperone function). The format is biochemical. To be noted: 48 °C; for effect on chaperone activity (MDH aggregation): 5 mM ADP/ATP. Here is the method: (§1) The chaperone function of parasite Hsp70s was investigated by monitoring heat-induced aggregation of a model protein, malate dehydrogenase (MDH) from porcine heart (Sigma-Aldrich), as previously described, with minor modifications. Before conducting the assays, we first established that both purified preparations of PfHsp70-1 and PfHsp70-z were heat-stable at 48 °C. After this, we then investigated the effects of the chaperones (PfHsp70-1/PfHsp70-z) on the heat-induced aggregation of MDH. To determine the effects of EGCG on the chaperone function of the two proteins, the assay was repeated in the presence of 2.5 µM of EGCG. EGCG was used at this concentration (2.5 µM) because this was the lowest concentration at which it inhibited the function of the chaperones. […] For statistical analysis, a one-way ANOVA test was conducted using GraphPad Prism 6 (San Diego, CA, USA).
T1 sequence (Q8IC01 entry or part of it): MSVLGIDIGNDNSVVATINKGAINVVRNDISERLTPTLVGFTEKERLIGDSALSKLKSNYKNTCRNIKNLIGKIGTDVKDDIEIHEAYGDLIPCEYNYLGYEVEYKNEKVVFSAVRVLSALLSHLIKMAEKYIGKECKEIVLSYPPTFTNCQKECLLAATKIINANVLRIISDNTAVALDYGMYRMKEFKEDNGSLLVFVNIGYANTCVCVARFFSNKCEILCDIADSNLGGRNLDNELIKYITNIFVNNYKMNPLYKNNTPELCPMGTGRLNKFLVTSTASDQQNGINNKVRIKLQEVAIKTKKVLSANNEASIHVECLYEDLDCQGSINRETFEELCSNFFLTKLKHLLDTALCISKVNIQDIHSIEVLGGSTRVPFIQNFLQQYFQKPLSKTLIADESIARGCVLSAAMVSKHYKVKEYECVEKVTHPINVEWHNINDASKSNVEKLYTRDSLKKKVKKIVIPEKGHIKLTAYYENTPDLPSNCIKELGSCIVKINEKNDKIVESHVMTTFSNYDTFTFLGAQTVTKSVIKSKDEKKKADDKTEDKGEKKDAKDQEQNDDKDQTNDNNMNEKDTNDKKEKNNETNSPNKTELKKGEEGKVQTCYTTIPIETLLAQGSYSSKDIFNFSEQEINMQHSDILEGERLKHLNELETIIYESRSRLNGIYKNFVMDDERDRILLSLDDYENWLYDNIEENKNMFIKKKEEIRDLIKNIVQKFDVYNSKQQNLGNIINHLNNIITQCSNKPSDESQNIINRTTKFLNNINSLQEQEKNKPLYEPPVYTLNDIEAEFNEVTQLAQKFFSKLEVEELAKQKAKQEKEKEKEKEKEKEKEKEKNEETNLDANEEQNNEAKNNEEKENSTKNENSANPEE

In assay [2] the target is T2, PfHsp70-1 (Plasmodium falciparum, UniProt Q8IB24). Described as above. Format: biochemical. To be noted: 48 °C; for effect on chaperone activity (MDH aggregation): 5 mM ADP/ATP. Here is the method: as §1
T2 sequence (Q8IB24 entry or part of it): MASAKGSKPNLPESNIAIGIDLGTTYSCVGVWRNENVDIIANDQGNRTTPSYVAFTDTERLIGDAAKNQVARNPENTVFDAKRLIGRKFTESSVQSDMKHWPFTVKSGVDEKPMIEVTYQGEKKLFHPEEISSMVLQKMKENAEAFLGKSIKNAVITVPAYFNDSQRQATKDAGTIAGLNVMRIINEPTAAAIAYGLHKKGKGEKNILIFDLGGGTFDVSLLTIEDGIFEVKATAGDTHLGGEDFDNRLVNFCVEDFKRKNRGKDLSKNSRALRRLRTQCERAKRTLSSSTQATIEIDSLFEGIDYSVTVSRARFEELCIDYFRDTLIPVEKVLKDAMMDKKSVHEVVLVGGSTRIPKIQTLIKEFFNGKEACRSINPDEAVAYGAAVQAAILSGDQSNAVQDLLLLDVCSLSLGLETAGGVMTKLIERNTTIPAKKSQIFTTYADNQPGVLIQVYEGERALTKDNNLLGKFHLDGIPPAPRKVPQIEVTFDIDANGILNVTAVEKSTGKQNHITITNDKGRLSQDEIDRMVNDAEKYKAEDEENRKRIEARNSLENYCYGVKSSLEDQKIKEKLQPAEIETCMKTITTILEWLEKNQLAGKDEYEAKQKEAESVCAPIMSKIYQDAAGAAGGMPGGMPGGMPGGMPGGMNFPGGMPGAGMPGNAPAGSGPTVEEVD
Assay [3] concerns the target T1, PfHsp70-z. The experiment in a line: Tryptophan/tyrosine fluorescence, tertiary conformation. The note with it: EGCG 0–5 μM. As to the method:
(§2) We further exposed the two proteins to varying amounts (0–5 µM) of EGCG and monitored he perturbation of the tertiary structural conformations of the proteins using both tyrosine and tryptophan fluorescence, as previously described. The respective recombinant protein (PfHsp70-1 of PfHsp70-z) at a final concentration of 0.45 μg/mL was incubated in assay buffer A (25 mM HEPES-KOH pH 7.5, 100 mM KCl, 10 mM MgOAc) at 20 °C either in the absence or presence of variable EGCG levels (0–5 μM). […] Tryptophan fluorescence spectra were recorded between 300 nm and 400 nm after initial excitation at 295 nm using a JASCO FP-6300 spectrofluorometer (Dunmow, UK). The combined fluorescence of tyrosine and tryptophan was monitored after initial excitation at 285 nm. Subsequently, fluorescence was monitored at wavelengths between 300 nm and 400 nm using a JASCO FP-6300 spectrofluorometer. The resultant spectra were averaged for least 15 scans and processed after subtraction of the baseline scan (buffer in which protein was excluded). A control consisting of a buffer containing EGCG, but lacking protein was used to account for baseline fluorescence.

Assay [4] deals with T2, PfHsp70-1. Described as above. To be noted: EGCG 0–5 μM. As to the method: as §2
The target in assay [5] is T1, PfHsp70-z. As to the kind of experiment: Basal ATPase activity, colourimetric Pi release. The format is biochemical. As to the method:
(§3) The basal ATPase activities of the parasite Hsp70s was assessed by a colourimetric-based method, as previously described. Briefly, 0.4 µM of recombinant proteins (PfHsp70-1/PfHsp70-z) was incubated in buffer HKMD (10 mM HEPES-KOH pH 7.5, 100 mM KCl, 2 mM MgCl2, 0.5 mM DTT) at 37 °C. […] The released inorganic phosphate was detected by adding 1.25% ammonium molybdate and 9% ascorbic acid and monitored using a M3 SpectraMax (Molecular Devices, Sunnyvale, CA, USA) spectrophotometer at 660 nm. To determine the effect of EGCG on the ATPase activity of parasite Hsp70s, the assay was repeated in the presence of varying amounts (0–5 µM) of EGCG.

Assay [6] addresses T2, PfHsp70-1. As to the kind of experiment: Basal ATPase activity, colourimetric Pi release. Format: biochemical. As to the method:
as §3

Assay [7] has as its target T2, PfHsp70-1. The experiment in a line: SPR binding affinity to immobilised PfHsp70-1. To be noted: EGCG vs ATP binding to PfHsp70-1. Here is the method: (§4) The binding affinity of EGCG for the two P. falciparum Hsp70s was determined using a Bio-Rad ProteOn XPR36 system (Hercules, CA, USA), as previously described. Briefly, PfHsp70-1, PfHsp70-1NBD, and PfHsp70-z (as ligands) were separately immobilized onto an HTE chip at concentrations of 0.5 μg/mL and 1 μg/mL, respectively, in order to validate the data. […] In order to determine the association of EGCG with the respective ligand, the EGCG stock solution was prepared in deionised water. Aliquots of EGCG were prepared at final concentrations of 0, 125, 250, 500, 1000, and 2000 nM and injected at 100 μL/min into each horizontal channel. Association was allowed for 2 min and dissociation was monitored for 8 min. Data collected was double referenced using a buffer blank (buffer without EGCG) and a channel in which protein was excluded. Steady-state equilibrium constant data were processed and analysed using BioRad ProteOn Manager Version 3.1.0.6 (Hercules, CA, USA) and GE Healthcare Biosciences BIA evaluation Version 4.1.1 software (Uppsala, Sweden).
In general terms: In SPR one partner is held on a chip, and binding of the other changes the refractive index at the surface.

For assay [8], the target named is T1, PfHsp70-z. The experiment in a line: SPR binding affinity to immobilised PfHsp70-z. The note with it: EGCG vs ATP binding to PfHsp70-z. As to the method:
as §4

Another assay has as its system P. falciparum 3D7. The experiment in a line: Antiplasmodial pLDH growth inhibition assay. Format: cell-based. The note with it: Plasmodium falciparum. As to the method:
P. falciparum 3D7 parasites were grown and maintained in continuous culture, as previously described, with minor modifications. The growth of P. falciparum 3D7-infected erythrocytes subjected to treatment with varying amounts (0, 0.156, 0.3125, 0.625, 1.25, 2.5, and 5 μM) of EGCG was monitored using the P. falciparum lactate dehydrogenase (pLDH) method, as previously described. As a control, Chloroquine, a known antimalarial drug, was used as a positive control in the assay. Serially-diluted EGCG was added to each culture batch. Uninfected erythrocytes that were similarly treated with EGCG were included to cater for possible lysis of erythrocytes exposed to EGCG. A blank consisting of media and EGCG was also set up. P. falciparum 3D7-infected erythrocytes that were not exposed to EGCG treatment were used as the viability control, representing ‘100% growth’. Analysis of the growth inhibition assay data was carried out using GraphPad Prism 6 (San Diego, CA, USA). The assay was repeated three times.

Broadly, the Ki is the dissociation constant of the complex between target and ligand, obtained from inhibition or displacement. Read a low Ki as higher affinity. As a reminder, the IC50 is the point on the concentration scale where inhibition reaches its midpoint.

Molecules are shown by their SMILES. Read-outs that look alike come from different tables or passages of the source.

On to `Nc1ncnc2c1ncn2[C@@H]1O[C@H](COP(=O)(O)OP(=O)(O)O)[C@@H](O)[C@H]1O` [ADP], for which the “effect on chaperone activity (MDH aggregation)” value on PfHsp70-z [1] and on PfHsp70-1 [2] was “did not alter the chaperone activity” throughout.

Take `Nc1ncnc2c1ncn2[C@@H]1O[C@H](COP(=O)(O)OP(=O)(O)OP(=O)(O)O)[C@@H](O)[C@H]1O` [ATP]: the “effect on chaperone activity (MDH aggregation)” value on PfHsp70-z [1] is on record as “not affecting the activity”; at PfHsp70-1 [2], “did inhibit the activity”.

As for `O=C(O[C@@H]1Cc2c(O)cc(O)cc2O[C@@H]1c1cc(O)c(O)c(O)c1)c1cc(O)c(O)c(O)c1` [EGCG, (−)-Epigallocatechin-3-gallate], the “shift of peak wavelength, tryptophan and tyrosine fluorescence” value at PfHsp70-z [3] and on PfHsp70-1 [4] was “red shift” in each case. Further, the Ki on PfHsp70-z [5] was determined as 2340 nM; at PfHsp70-1 [6], 1720 nM. The Vmax at PfHsp70-z [5] (EGCG 0.156 μM) was 20.58 (±0.5) nmol/min/mg; at PfHsp70-z [5] (EGCG 0.3125 μM) it was 18.46 (±0.3) nmol/min/mg; at PfHsp70-z [5] (EGCG 0.625 μM), 19.66 (±0.5) nmol/min/mg; at PfHsp70-z [5] (EGCG 1.25 μM) it was 21.26 (±0.9) nmol/min/mg; on PfHsp70-z [5] (EGCG 2.5 μM), 18.88 (±0.6) nmol/min/mg; at PfHsp70-z [5] (EGCG 5.0 μM), 17.57 (±0.3) nmol/min/mg. The Vmax is 28.22 (±1.5) nmol/min/mg on PfHsp70-1 [6] (EGCG 0.156 μM); 29.03 (±0.7) nmol/min/mg on PfHsp70-1 [6] (EGCG 0.3125 μM); 28.40 (±0.95) nmol/min/mg on PfHsp70-1 [6] (EGCG 0.625 μM); 27.47 (±2.01) nmol/min/mg at PfHsp70-1 [6] (EGCG 1.25 μM); 29.04 (±0.6) nmol/min/mg at PfHsp70-1 [6] (EGCG 2.5 μM); 30.06 (±0.5) nmol/min/mg at PfHsp70-1 [6] (EGCG 5.0 μM). Further, the “fold higher affinity than ATP” value at PfHsp70-1 [7] and at PfHsp70-z [8] was “approximately 10 fold” each time. The “effect on capability to suppress heat-induced aggregation of MDH” value on PfHsp70-z [1] (2.5 µM EGCG) and at PfHsp70-1 [2] (2.5 µM EGCG) was “abrogated” throughout. Further, the “lowest concentration at which it inhibited the function of the chaperones” value on PfHsp70-z [1] (MDH aggregation) and at PfHsp70-1 [2] (MDH aggregation) was 2.5 µM throughout. Besides, the IC50 in the assay with P. falciparum 3D7 (3D7, blood stages, pLDH, read-out: IC50 parasite growth) is 2900 nM.

Regarding `CCN(CC)CCCC(C)Nc1ccnc2cc(Cl)ccc12` (stereo not shown) [chloroquine], the concentration for half-maximal inhibition (IC50) in the assay with P. falciparum 3D7 (3D7, read-out: IC50 parasite growth) stood at 8.5 nM.

These data come from publication PMC6149709, “(−)-Epigallocatechin-3-Gallate Inhibits the Chaperone Activity of Plasmodium falciparum Hsp70 Chaperones and Abrogates Their Association with Functional Partners” (Molecules : A Journal of Synthetic Chemistry and Natural …, 2017).
